Source: patent US11987568B2, “Allosteric inhibitor of WEE1 kinase” (H. LEE MOFFITT CANCER CENTER AND RESEARCH INSTITUTE, INC., priority 2018, dated 2024)

What was measured:
[1] = system: Cdc2 Tyr15-phosphorylation (pY15-Cdc2); experiment: WEE1 cell cycle inhibitory activity in cells: pY15-Cdc2 immunoblot; type: cell-based, human
Text: FIGS. 2A-2B show identification of 3 distinct types of inhibitors. […] In addition, the lysates were also subjected to by immunoblotting with […]-Cdc2 or actin antibodies (middle and bottom panels). […] The number vehicle treated cells were used as control and percent of surviving cells were plotted. […] In addition, the lysates were also subjected to immunoblotting with actin antibodies (bottom panel). Identification of compounds with WEE1 epigenetic inhibitory role: 14 'hits' that were identified in the screen are shown in FIG. 1. These compounds were further tested for their ability to inhibit WEE1 epigenetic activity. Prostate cancer derived LNCaP cells were treated with 3 uM of compounds for 48 hours. […] Lysates were also assessed for WEE1 cell cycle inhibitory activity by determining Cdc2 Tyr15-phosphorylation ([…]-Cdc2). […] These are named as 'Cell Cycle' inhibitors. […] These compounds are the 'Epigenetic' inhibitors.

[2] = system: global histone H3K18, H3K12 and H3K9 and H4K5 acetylation; experiment: Global histone acetylation after treatment; type: cell-based
Text: FIGS. 15A-15B show restoration of H3K18 epigenetic marks by epigenetic inhibitor of WEE1 kinase.
FIGS. 16A-16D show restoration of H4K5 and H3K12 epigenetic marks by epigenetic inhibitor of WEE1 kinase.
Global upregulation of histone H3K18 and H3K12 acetylation upon WEIN-159 treatment: To further examine the effect of WEE1 inhibition, global histone H3K18, H3K12 and H3K9 and H4K5 acetylation was examined following WEIN-159 and WEIN-172 treatment. […] In contrast, H3K9 acetylation levels were not affected.

[3] = system: WEE1; experiment: Endogenous WEE1 auto-phosphorylation in cells (WEE1 IP, pTyr immunoblot); type: cell-based, human; conditions: LNCaP and melanoma cell line B16, 10 μM, 24 hours (FIGS. 7B and C)
Experimental: The reaction mix was then subjected to immunoprecipitated with WEE1 antibodies, followed by immunoblotting with pTyr antibodies (top panel). As a control, purified ACK1 protein was incubated in the reaction buffer containing ATP, in presence of 100 nM epigenetic inhibitors. The reaction mix was then subjected to immunoprecipitated with ACK1 antibodies, followed by immunoblotting with pTyr antibodies (bottom panel). […] In addition, the lysates were also subjected to immunoblotting with actin antibodies (bottom panel). […] In addition, the lysates were also subjected to immunoblotting with actin antibodies (bottom panel). […] In addition, the lysates were also subjected to immunoblotting with actin antibodies (bottom panel). To determine direct binding of these compounds causing WEE1 inhibition, a full length WEE1 kinase protein was incubated with the compounds. […] These inhibitors were further validated by assessing their ability to suppress endogenous WEEE activity; LNCaP cells were treated with 10 μM of these compounds overnight.

[4] = system: LNCaP cells; experiment: Cell cycle analysis by propidium iodide staining; type: cell-based, human; conditions: 16 hours
Experimental: To further validate this observation, LNCaP cells were treated with WEIN-159 and 172 for 16 hours and cell cycle analysis was performed by propidium iodide staining.

[5] = target: full length human WEE1 kinase (Homo sapiens, UniProt P30291); experiment: ELISA based assay: WEE1 phosphorylation of biotinylated H2B peptide spanning Tyr37; type: biochemical; design: A full length human WEE1 kinase that was enzymatically active was purified from insect cell; ELISA assay % Inhibition: concentration or dose not given beside the values; conditions: Table 3; No peptide = 100, No inhibitor = 0
full length human WEE1 kinase, sequence (P30291 whole entry): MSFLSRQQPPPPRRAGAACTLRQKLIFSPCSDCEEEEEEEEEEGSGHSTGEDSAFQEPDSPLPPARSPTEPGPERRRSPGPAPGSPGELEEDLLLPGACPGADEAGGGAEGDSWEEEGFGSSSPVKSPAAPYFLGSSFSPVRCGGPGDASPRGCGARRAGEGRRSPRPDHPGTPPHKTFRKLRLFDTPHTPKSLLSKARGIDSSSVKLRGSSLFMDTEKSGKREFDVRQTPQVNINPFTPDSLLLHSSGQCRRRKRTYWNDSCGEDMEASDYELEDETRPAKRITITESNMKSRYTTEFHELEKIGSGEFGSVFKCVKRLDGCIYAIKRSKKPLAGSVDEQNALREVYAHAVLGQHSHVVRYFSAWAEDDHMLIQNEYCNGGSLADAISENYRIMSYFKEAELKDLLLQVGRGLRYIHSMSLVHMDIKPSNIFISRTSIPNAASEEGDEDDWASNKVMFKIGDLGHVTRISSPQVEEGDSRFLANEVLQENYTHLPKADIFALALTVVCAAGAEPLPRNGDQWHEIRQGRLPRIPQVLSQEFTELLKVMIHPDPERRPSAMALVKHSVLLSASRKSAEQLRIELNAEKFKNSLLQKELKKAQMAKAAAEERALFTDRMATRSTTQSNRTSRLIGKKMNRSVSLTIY
Text: Designing of a Novel inhibitor Screening Platform: […] A full length human WEE1 kinase that was enzymatically active was purified from insect cell. […] NCI diversity set compound library ( 1600 compounds) was used for the screening.

[6] = system: histone H2B Tyr37-phopshorylation (pY37-H2B); experiment: WEE1 epigenetic activity in cells: pY37-H2B immunoprecipitation/immunoblot; type: cell-based, human
Text: FIGS. 2A-2B show identification of 3 distinct types of inhibitors. […] In addition, the lysates were also subjected to by immunoblotting with pY15-Cdc2 or actin antibodies (middle and bottom panels). […] The number vehicle treated cells were used as control and percent of surviving cells were plotted.
FIGS. 4A-4B show structures of ‘hits’ identified in WEE1 epigenetic inhibitor screen. […] The reaction mix was then subjected to immunoprecipitated with WEE1 antibodies, followed by immunoblotting with pTyr antibodies. […] In addition, the lysates were also subjected to immunoblotting with actin antibodies (bottom panel).
FIGS. 7A-7C show identification of WEIN-159 as a potent WEE1 epigenetic inhibitor. […] In addition, lysates were immunoprecipitated with pY37-H2B antibodies, followed by immunoblotting with H2B antibodies (middle panel). […] The lysates were also subjected to immunoblotting with pY15-Cdc2 antibodies and were immunoprecipitated with pY37-H2B antibodies, followed by immunoblotting with H2B antibodies (middle panels). In addition, the lysates were also subjected to immunoblotting with H2B antibodies (bottom panel). […] The lysates were also subjected to immunoblotting with pY15-Cdc2 antibodies and were immunoprecipitated with pY37-H2B antibodies, followed by immunoblotting with H2B antibodies (middle panels). In addition, the lysates were also subjected to immunoblotting with actin antibodies (bottom panel).
Identification of compounds with WEE1 epigenetic inhibitory role: 14 ‘hits’ that were identified in the screen are shown in FIG. 1. These compounds were further tested for their ability to inhibit WEE1 epigenetic activity. Prostate cancer derived LNCaP cells were treated with 3 uM of compounds for 48 hours. Cells were harvested, lysates were prepared, and WEE1 epigenetic activity was detected by determining histone H2B Tyr37-phopshorylation (pY37-H2B). Lysates were also assessed for WEE1 cell cycle inhibitory activity by determining Cdc2 Tyr15-phosphorylation (pY15-Cdc2). […] These are named as ‘Cell Cycle’ inhibitors. […] These compounds are the ‘Epigenetic’ inhibitors.

[7] = system: global histone levels; experiment: Global histone expression, qRT-PCR; type: cell-based, human; conditions: LNCaP 5 or 10 uM 16 hr; LAPC4 3.5 uM 48 hr
Text: FIGS. 8A-8B show inhibition of WEE1 epigenetic activity lead to increased global histone expression. […] Total RNA was isolated followed by qRT-PCR with histone H3 and actin primers. […] Total RNA was isolated followed by qRT-PCR with histone H3 and actin primers.
WEIN-159 and WEIN-172 were further assessed by treatment of LNCaP and melanoma cell line B16, followed by determination of WEE1, H2B and Cdc Tyr-phopshorylation.

[8] = system: WEE1 protein; experiment: Pull-down assay with biotinylated inhibitor on streptavidin beads; type: binding; conditions: lysates of transfected HEK293T cells (FIGS. 11C and D)
Experimental: (§1) FIGS. 11A-11E show direct interaction between inhibitor and WEE1 kinase. […] FIGS. 11C-11E show biotinylated WEIN-159 and WEIN-172 immobilized onto streptavidin beads were incubated with lysates prepared from HEK293T cells transfected with MYC-tagged WEE1 deletion constructs, followed by immunoblotting with MYC antibodies.
(§2) Inhibitory activity of WEIN-159 and WEIN-172 was further validated by examining its direct-binding to WEE1 protein, using a pull-down assay. WEIN-159 and WEIN-172 were attached to biotin molecule (FIG. 10) and then immobilized onto streptavidin beads. Beads were incubated with cell lysate, washed and electrophoresed followed by immunoblottng with WEE1 antibodies.
(§3) To further identify region within WEE1 that may be involved in binding to inhibitor, a deletion strategy was employed wherein three deletions, A-WEE1, B-WEE1 and C-Wee1 were generated which were Myc-tagged (FIG. 11B). Constructs were transfected in HEK293T cells and lysates were incubated with biotin beads with bound WEIN-159 and 172.

[9] = target: WEE1 (Homo sapiens, UniProt P30291); experiment: as above; type: binding; conditions: LNCaP cell lysates, WEE1 immunoblot (FIG. 11A)
WEE1 (Homo sapiens, UniProt P30291), sequence (P30291 whole entry): as above
Experimental: as §1, §2, §3

[10] = LNCaP and melanoma cell line B16, 10 μM, 24 hours (FIGS. 7B and C)
[11] = LNCaP cells, 10 μM, 24 hours (FIG. 7A)

Cl.Nc1cccc(NC(=O)c2ccc(C(=O)Nc3cccc(N)c3)s2)c1 [WEIN-172]
Cdc Tyr15-phopshorylation [1, 10]: remained unaffected
Cdc Tyr-phopshorylation [1, 11]: unaffected
H3K9 acetylation levels [2]: not affected
H3K18 acetylation ([2]; FIG. 15): significant increase in H3K18 acetylation
H3K12 acetylation ([2]; FIGS. 16 A and B): significant increase
H4K5 acetylation ([2]; FIGS. 16A and C): significant increase
WEE1 Tyr-phopshorylation [3]: significant loss of WEE1 and H2B Tyr-phopshorylation
Cell Cycle Analysis G1 [4]: 56.53
Cell Cycle Analysis G2/M [4]: 16.29
Cell Cycle Analysis S [4]: 27.18
ELISA assay % Inhibition [5]: 112%
H2B Tyr-phopshorylation [6, 10]: significant loss of WEE1 and H2B Tyr-phopshorylation
H2B Tyr37-phopshorylation [6, 11]: almost complete loss of H2B Tyr37-phopshorylation
global histone levels (real time PCR of H3 and H2B) [7]: significant increase in global histone levels
binding to MYC-tagged WEE1 deletion constructs [8]: only full length WEE1 interacted with inhibitor
binding of WEE1 protein to biotinylated inhibitor on streptavidin beads [9]: to lesser extent
